Experimental data: patent US11339130B1 (Blade Therapeutics, Inc., priority 2016, dated 2022)
pIC50: −log10 of the molar value.

What was measured:
Type in all cases: biochemical
[1] = target: T1, Human Calpain 9/NS1 (Homo sapiens, UniProt O14815); experiment: Calpain inhibition continuous fluorescence (FRET) assay, Human Calpain 9/NS1; conditions: Column C; read-out: Human Calpain 9/NS1 IC50
T1 sequence (O14815 1-690): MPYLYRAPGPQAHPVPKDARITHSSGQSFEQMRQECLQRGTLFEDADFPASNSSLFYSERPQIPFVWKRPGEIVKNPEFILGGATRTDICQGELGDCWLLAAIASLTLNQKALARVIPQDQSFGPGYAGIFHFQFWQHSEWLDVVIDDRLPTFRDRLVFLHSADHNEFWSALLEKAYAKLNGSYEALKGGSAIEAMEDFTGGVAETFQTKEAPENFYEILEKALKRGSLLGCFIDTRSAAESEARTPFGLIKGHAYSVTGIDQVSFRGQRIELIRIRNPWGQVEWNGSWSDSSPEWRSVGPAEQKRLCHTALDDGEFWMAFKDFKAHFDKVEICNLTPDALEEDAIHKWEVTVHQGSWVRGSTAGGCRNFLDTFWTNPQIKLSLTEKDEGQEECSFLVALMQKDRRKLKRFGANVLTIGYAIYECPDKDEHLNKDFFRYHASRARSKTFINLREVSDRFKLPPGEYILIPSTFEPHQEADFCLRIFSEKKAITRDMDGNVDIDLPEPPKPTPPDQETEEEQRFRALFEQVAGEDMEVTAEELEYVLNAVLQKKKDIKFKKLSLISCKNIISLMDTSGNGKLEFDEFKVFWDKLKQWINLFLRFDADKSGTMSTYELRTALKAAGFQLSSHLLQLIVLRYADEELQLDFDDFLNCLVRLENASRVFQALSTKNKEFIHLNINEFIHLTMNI
T1 sequence (P04632 1-268 partner): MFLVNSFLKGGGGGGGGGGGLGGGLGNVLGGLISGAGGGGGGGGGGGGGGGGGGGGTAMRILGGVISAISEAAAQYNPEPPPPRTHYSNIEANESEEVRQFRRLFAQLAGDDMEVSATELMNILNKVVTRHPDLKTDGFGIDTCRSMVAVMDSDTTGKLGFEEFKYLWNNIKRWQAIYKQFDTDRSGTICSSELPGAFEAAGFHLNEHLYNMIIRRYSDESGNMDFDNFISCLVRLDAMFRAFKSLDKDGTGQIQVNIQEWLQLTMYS
Method: (§1) Calpain 1, 2, and 9 activity and inhibition thereof was assessed by means of a continuous fluorescence assay. The SensoLyte 520 Calpain substrate (Anaspec Inc) was optimized for detecting calpain activity. This substrate contains an internally quenched 5-FAM/QXL™ 520 FRET pair. Calpains 1, 2, and 9 cleave the FRET substrate into two separate fragments resulting in an increase of 5-FAM fluorescence that is proportional to calpain activity
(§2) Assays were typically setup in black 384-well plates using automated liquid handling as follows. Calpain assay base buffer typically contains 50 mM Tris, pH 7.5, 100 mM NaCl and 1 mM DTT. Inhibitors were serially diluted in DMSO and used to setup 2× mixtures with calpains in the aforementioned buffer. After incubation at ambient temperature (25C), the reaction was initiated by adding a 2× mix of the fluorescent peptide substrate and CaCl2) (required for in-situ calpain activation) in the same buffer. Reaction progress curve data were typically collected for 10 min using excitation/emission wavelengths of 490 nm/520 nm on SpectraMax i3× or the FLIPR-Tetra plate readers (Molecular Devices Inc). Reaction rates were calculated from progress curve slopes typically over 1-5 min. Dose response curves (rate vs. log inhibitor concentration) were typically fit to a 4-parameter logistic function to extract IC50 values.

[2] = target: T2, Human Calpain 1/NS1 (Homo sapiens, UniProt P07384); experiment: Calpain inhibition continuous fluorescence (FRET) assay, Human Calpain 1/NS1; conditions: Column A; read-out: Human Calpain 1/NS1 IC50
T2 sequence (P07384 1-714): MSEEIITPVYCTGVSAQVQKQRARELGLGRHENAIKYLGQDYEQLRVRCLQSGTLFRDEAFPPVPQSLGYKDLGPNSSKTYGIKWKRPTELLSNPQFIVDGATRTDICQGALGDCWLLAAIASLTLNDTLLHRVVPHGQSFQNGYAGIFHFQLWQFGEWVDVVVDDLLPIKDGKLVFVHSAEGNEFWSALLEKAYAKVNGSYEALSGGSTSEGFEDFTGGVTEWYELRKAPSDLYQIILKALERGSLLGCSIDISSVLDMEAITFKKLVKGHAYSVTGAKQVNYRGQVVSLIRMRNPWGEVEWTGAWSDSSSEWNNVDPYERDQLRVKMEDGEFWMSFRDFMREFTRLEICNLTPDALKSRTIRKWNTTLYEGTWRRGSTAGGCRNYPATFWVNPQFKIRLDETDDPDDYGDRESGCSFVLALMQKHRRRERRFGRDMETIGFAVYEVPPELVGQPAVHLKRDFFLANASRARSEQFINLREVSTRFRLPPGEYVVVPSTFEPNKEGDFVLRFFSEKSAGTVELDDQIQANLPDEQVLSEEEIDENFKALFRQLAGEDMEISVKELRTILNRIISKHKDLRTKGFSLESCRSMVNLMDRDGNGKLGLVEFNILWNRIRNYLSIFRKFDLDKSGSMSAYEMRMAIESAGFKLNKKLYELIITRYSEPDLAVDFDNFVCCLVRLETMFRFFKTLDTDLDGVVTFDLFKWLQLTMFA
T2 sequence (P04632 1-268 partner): T1 sequence (P04632 1-268 partner)
Method: as §1, §2

[3] = target: T3, Human Calpain 2/NS1 (Homo sapiens, UniProt P17655); experiment: Calpain inhibition continuous fluorescence (FRET) assay, Human Calpain 2/NS1; conditions: Column B; read-out: Human Calpain 2/NS1 IC50
T3 sequence (P17655 1-700): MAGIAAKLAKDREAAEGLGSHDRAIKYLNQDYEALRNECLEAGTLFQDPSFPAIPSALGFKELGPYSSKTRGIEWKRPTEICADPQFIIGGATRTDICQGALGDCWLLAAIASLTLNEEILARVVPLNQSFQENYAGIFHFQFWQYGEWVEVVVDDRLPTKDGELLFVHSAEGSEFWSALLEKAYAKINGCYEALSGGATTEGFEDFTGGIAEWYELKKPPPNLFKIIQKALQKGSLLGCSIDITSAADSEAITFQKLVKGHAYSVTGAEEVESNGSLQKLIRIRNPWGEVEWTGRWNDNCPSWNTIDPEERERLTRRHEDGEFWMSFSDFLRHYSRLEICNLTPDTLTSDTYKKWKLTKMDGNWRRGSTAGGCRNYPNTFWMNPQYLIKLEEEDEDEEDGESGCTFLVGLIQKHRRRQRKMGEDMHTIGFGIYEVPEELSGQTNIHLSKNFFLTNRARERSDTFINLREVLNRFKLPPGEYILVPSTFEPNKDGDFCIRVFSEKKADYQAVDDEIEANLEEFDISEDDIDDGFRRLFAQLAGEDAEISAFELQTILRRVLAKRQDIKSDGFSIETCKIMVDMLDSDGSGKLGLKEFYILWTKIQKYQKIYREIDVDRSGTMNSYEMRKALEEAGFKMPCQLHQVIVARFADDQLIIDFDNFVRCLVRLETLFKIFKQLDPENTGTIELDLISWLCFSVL
T3 sequence (P04632 1-268 partner): T1 sequence (P04632 1-268 partner)
Method: as §1, §2

NC(=O)C(=O)[C@H](Cc1ccccc1)NC(=O)c1scnc1-n1cc(-c2ccccc2)cn1 [Compound 39, (S)—N-(4-amino-3,4-dioxo-1-phenylbutan-2-yl)-4-(4-phenyl-1H-pyrazol-1-yl)thiazole-5-carboxamide]
pIC50 [1]: > 5.52 | pIC50 [2]: > 5.52 | pIC50 [3]: > 5.52

NC(=O)C(=O)[C@H](Cc1ccccc1)NC(=O)c1scnc1-n1ncc2ccccc21 [Compound 40, (S)—N-(4-amino-3,4-dioxo-1-phenylbutan-2-yl)-4-(1H-indazol-1-yl)thiazole-5-carboxamide]
pIC50 [1]: > 5.52 | pIC50 [2]: > 5.52 | pIC50 [3]: > 5.52

O=C(NC1CC1)C(=O)[C@H](Cc1ccccc1)NC(=O)c1cncn1-c1ccccn1 [Compound 41, (S)—N-(4-(cyclopropylamino)-3,4-dioxo-1-phenylbutan-2-yl)-1-(pyridin-2-yl)-1H-imidazole-5-carboxamide]
pIC50 [1]: 5.00 to 5.52 | pIC50 [2]: 5.00 to 5.52 | pIC50 [3]: > 5.52

O=C(NC1CC1)C(=O)[C@H](Cc1ccccc1)NC(=O)c1cncn1-c1ccn(-c2ccccc2)n1 [Compound 42, (S)—N-(4-(cyclopropylamino)-3,4-dioxo-1-phenylbutan-2-yl)-1-(1-phenyl-1H-pyrazol-3-yl)-1H-imidazole-5-carboxamide]
pIC50 [1]: < 5.00 | pIC50 [2]: > 5.52 | pIC50 [3]: > 5.52

O=C(NC1CC1)C(=O)[C@H](Cc1ccccc1)NC(=O)c1cncn1-c1nc2ccccc2s1 [Compound 43, (S)-1-(benzo[d]thiazol-2-yl)-N-(4-(cyclopropylamino)-3,4-dioxo-1-phenylbutan-2-yl)-1H-imidazole-5-carboxamide]
pIC50 [1]: > 5.52 | pIC50 [2]: > 5.52 | pIC50 [3]: > 5.52

COc1ccc(C[C@H](NC(=O)c2c(C)noc2-c2ccccc2)C(=O)C(N)=O)cc1 [Compound 46, (S)—N-(4-amino-1-(4-methoxyphenyl)-3,4-dioxobutan-2-yl)-3-methyl-5-phenylisoxazole-4-carboxamide]
pIC50 [1]: > 5.52 | pIC50 [2]: > 5.52 | pIC50 [3]: > 5.52

CC[C@H](NC(=O)c1c(C)noc1-c1ccccc1)C(=O)C(N)=O [Compound 47]
pIC50 [1]: > 5.52 | pIC50 [2]: > 5.52 | pIC50 [3]: > 5.52

NC(=O)C(=O)[C@H](Cc1ccccc1)NC(=O)c1[nH]cnc1-c1ccccc1 [Compound 48, (S)—N-(4-amino-3,4-dioxo-1-phenylbutan-2-yl)-4-phenyl-1H-imidazole-5-carboxamide]
pIC50 [1]: 5.00 to 5.52 | pIC50 [2]: 5.00 to 5.52 | pIC50 [3]: 5.00 to 5.52

O=C(NC1CC1)C(=O)[C@H](Cc1ccccc1)NC(=O)c1cncn1-c1n[nH]c2ccccc12 [Compound 51, (S)—N-(4-(cyclopropylamino)-3,4-dioxo-1-phenylbutan-2-yl)-1-(1H-indazol-3-yl)-1H-imidazole-5-carboxamide]
pIC50 [1]: < 5.00 | pIC50 [2]: 5.00 to 5.52 | pIC50 [3]: 5.00 to 5.52

NC(=O)C(=O)[C@H](Cc1ccccc1)NC(=O)c1cncn1-c1ncc(-c2ccccc2)s1 [Compound 52, (S)—N-(4-amino-3,4-dioxo-1-phenylbutan-2-yl)-1-(5-phenylthiazol-2-yl)-1H-imidazole-5-carboxamide]
pIC50 [1]: > 5.52 | pIC50 [2]: > 5.52 | pIC50 [3]: > 5.52

O=C(NC1CC1)C(=O)[C@H](Cc1ccccc1)NC(=O)c1cncn1-c1ncc(-c2ccccc2)s1 [Compound 53, (S)—N-(4-(cyclopropylamino)-3,4-dioxo-1-phenylbutan-2-yl)-1-(5-phenylthiazol-2-yl)-1H-imidazole-5-carboxamide]
pIC50 [1]: 5.00 to 5.52 | pIC50 [2]: > 5.52 | pIC50 [3]: > 5.52

Cc1nc(C(=O)N[C@@H](Cc2ccccc2)C(=O)C(N)=O)c(-c2ccccc2)s1 [Compound 54, (S)—N-(4-amino-3,4-dioxo-1-phenylbutan-2-yl)-2-methyl-5-phenylthiazole-4-carboxamide]
pIC50 [1]: > 5.52 | pIC50 [2]: > 5.52 | pIC50 [3]: > 5.52

Cc1noc(-c2ccccc2)c1C(=O)N[C@@H](CC(C)(C)C)C(=O)C(N)=O [Compound 56]
pIC50 [1]: > 5.52 | pIC50 [2]: > 5.52 | pIC50 [3]: > 5.52

O=C(NC1CC1)C(=O)[C@H](Cc1ccccc1)NC(=O)c1scnc1-c1ccccn1 [Compound 61]
pIC50 [1]: > 5.52 | pIC50 [2]: > 5.52 | pIC50 [3]: > 5.52

CCCC[C@H](NC(=O)c1c(C)noc1-c1ccccc1)C(=O)C(N)=O [Compound 62, (S)—N-(1-amino-1,2-dioxoheptan-3-yl)-3-methyl-5-phenylisoxazole-4-carboxamide]
pIC50 [1]: > 5.52 | pIC50 [2]: > 5.52 | pIC50 [3]: > 5.52

O=C(NC1CC1)C(=O)[C@H](Cc1ccccc1)NC(=O)c1scnc1-n1cc2ccccc2n1 [Compound 64, (S)—N-(4-(cyclopropylamino)-3,4-dioxo-1-phenylbutan-2-yl)-4-(2H-indazol-2-yl)thiazole-5-carboxamide]
pIC50 [1]: > 5.52 | pIC50 [2]: > 5.52 | pIC50 [3]: > 5.52

Cc1cc(C(=O)N[C@@H](Cc2ccccc2)C(=O)C(=O)NC2CC2)n(-c2ncccn2)n1 [Compound 65, (S)—N-(4-(cyclopropylamino)-3,4-dioxo-1-phenylbutan-2-yl)-3-methyl-1-(pyrimidin-2-yl)-1H-pyrazole-5-carboxamide]
pIC50 [1]: < 5.00 | pIC50 [2]: < 5.00 | pIC50 [3]: < 5.00

Cc1cc(C(=O)N[C@@H](Cc2ccccc2)C(=O)C(N)=O)n(-c2ncccc2C)n1 [Compound 66, (S)—N-(4-amino-3,4-dioxo-1-phenylbutan-2-yl)-3-methyl-1-(3-methylpyridin-2-yl)-1H-pyrazole-5-carboxamide]
pIC50 [1]: > 5.52 | pIC50 [2]: 5.00 to 5.52 | pIC50 [3]: > 5.52
